The values below are quoted from earlier work in patent publication US20250000791A1, “OPHTHALMIC FORMULATION FOR PREVENTING AND/OR TREATING CATARACTS BY EYE DROP ADMINISTRATION” (CHENGDU RUIMU BIOPHARMACEUTICALS CO., LTD., priority 2021, published 2025).

The structures appear in SMILES notation. Where two headings read alike, the source gives them in different places.

One data set relates to crystallins. The conditions noted are these: lens fragments of cataract patients; lanosterol 0.20 mM, 25-HC 0.25 and 0.50 mM, 37° C., 72 h.
In data set [1] the test system is cataract nucleus obtained after cataract extraction. The settings on record: 25 mM lanosterol solution, 6 days.
For data set [2] the following is noted: 0.5% LAN solution with 15% DMSO, 20% ethanol or polysorbate 80, injected into the vitreous body of rats.

`C[C@H](CCCC(C)(C)O)[C@H]1CC[C@H]2[C@@H]3CC=C4C[C@@H](O)CC[C@]4(C)[C@H]3CC[C@]12C` [25-hydroxycholesterol]: in the data set with crystallins, the “binding to crystallins / solving cataract” value is recorded as “did not find that lanosterol or 25-hydroxycholesterol can bind to crystallins”.

In the case of `CC(C)=CCC[C@@H](C)[C@H]1CC[C@@]2(C)C3=C(CC[C@]12C)[C@@]1(C)CC[C@H](O)C(C)(C)[C@@H]1CC3` [lanosterol], the solubility in water entry is on record as “low solubility in water”. In the data set with animal cataract model (administration by eye drops alone), the effect on cataract entry is “cannot treat cataracts”. Moreover, the effect on cataract result with animal cataract model (nanoparticles into the vitreous cavity once every 3 days combined with 25 mM eye drops six times a week, 6 weeks) was “the cataract disappeared”. Besides, the cataract clarity entry in data set [1] was “no significant improvement in cataract clarity”. In addition, the “binding to crystallins / solving cataract” value in the data set on crystallins was “did not find that lanosterol or 25-hydroxycholesterol can bind to crystallins”. For the same compound, in data set [2], the “effect on lens opacity” value is “poses a risk of promoting lens opacity” and the “effect on the vitreous body” value is recorded as “causes vitreous turbidness”.
